From US20240368158A1, “KINASE MODULATORS, COMPOSITIONS COMPRISING THE KINASE MODULATOR, AND METHODS OF USING THE SAME” (BIOFRONT LTD, priority 2021, published 2024)

Experiments:
HPK1 = biological target: T1, HPK1 (Homo sapiens, UniProt Q92918); test: HPK1 enzyme inhibition assay (ADP-Glo); type: biochemical; details: MBP substrate, ATP
T1 construct: purchased Signal Chem M23-11G-10
T1 sequence (Q92918 1-346 limits assumed): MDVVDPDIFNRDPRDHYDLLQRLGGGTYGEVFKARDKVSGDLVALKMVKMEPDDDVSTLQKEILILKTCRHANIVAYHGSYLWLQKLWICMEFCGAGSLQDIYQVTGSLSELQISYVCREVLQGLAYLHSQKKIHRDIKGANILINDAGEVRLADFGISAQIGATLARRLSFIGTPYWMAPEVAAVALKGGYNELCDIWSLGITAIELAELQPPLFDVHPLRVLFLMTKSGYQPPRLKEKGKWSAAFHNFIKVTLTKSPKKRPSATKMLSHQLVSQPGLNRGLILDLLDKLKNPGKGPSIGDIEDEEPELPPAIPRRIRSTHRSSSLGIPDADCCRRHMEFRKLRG
Description: The compound was dissolved in 100% DMSO at the concentration of 10 mM. The HPK1 protein was purchased from Signal Chem (M23-11G-10). 2.5 μL per well of 2×HPK1 protein was added to assay plate containing the test compound, centrifuged at 1500 rpm for 1 minute, and then incubated at 25° C. for 60 minutes. MBP protein was purchased from Signal Chem (M42-51N) and ATP was purchased from Promega (V9102). The two were added 2.5 μL per well mixture of 2×MBP (0.2 ug/ul) and ATP (20 μM), centrifuged at 1500 rpm for 1 minute, then incubated at 25° C. for 60 minutes. Then added 5 μL of ADP-Glo from Promega (V9102) to the assay plate and depleted the unconsumed ATP for 60 minutes. Then centrifuged at 1500 rpm for 1 minute and incubated at 25° C. for 60 minutes. Finally, 10 μL of the kinase assay reagent from Promega (V9102) was added to the assay plate to convert ADP to ATP, centrifuged at 1500 rpm for 1 minute, incubate at 25° C. for 40 minutes. After 40 minutes incubation, the […] was determined. Based on the results, the IC50 value of the compound was calculated.

[1] = system: HPK1 p-SLP-76 in Jurkat cells; test: HPK1 p-SLP-76 inhibition assay in Jurkat cells (HTRF); type: cell-based; details: Homo sapiens, 4 h compound, anti-CD3 stimulation 20 min
Description: Before compound treatment, Jurkat cells were starved in PRMI-1640 medium supplemented with 0.5% FBS overnight. The cell density was adjusted to 1*10^7 cells/mL in assay medium (RPMI-1640 no phenol red with 0.5% FBS) and 16 uL cell suspension was transferred per well to a 384-well plate (Corning #3765). […] of test compound was prepared in assay medium and 4 uL was added per well to the 384-well plate. The plate was then incubated at 37° C., 5% CO2 for 4 h. Jurkat cells in 384-well plate were stimulated with anti-CD3 (BD Biosciences #555329, final conc. is 10 ug/mL) for 20 min at 37° C., 5% CO2 by adding 4 uL 6× antibody solution per well. Phospho-SLP76 HTRF kit was purchased from Cisbio (63ADK076PEH). 8 uL 4× Lysis Buffer was added to 384-well plate after anti-CD3 stimulation. The plate was centrifuged at 1,000 rpm for 1 min, shaken at 250 rpm for 60 min and centrifuged again at 1,000 rpm for 5 min. Afterwards the cell lysates were transferred to the assay plate (Greiner #784075) with 16 uL per well. 4 uL detection antibody mix per well prepared in Detection Buffer was added to the assay plate, followed by centrifugation at 1,000 rpm for 1 min and incubation at 25° C. overnight. The fluorescence emission at two different wavelengths (665 nm and 620 nm) was read by an HTRF compatible microplate reader and the IC50 value of the compound was calculated.

COCC(=O)N1CCN(c2cccc(-c3cnc4[nH]cc(C#Cc5ccccn5)c4c3Cl)c2)C(=O)C1 [Example 35, 1-(3-(4-chloro-3-(pyridin-2-ylethynyl)-1H-pyrrolo[2,3-b]pyridin-5-yl)phenyl)-4-(2-methoxyacetyl)piperazin-2-one]
IC50 (HPK1): 0.01 to 0.1 µM
IC50 [1]: 3 to 10 µM

Cn1cnc(C#Cc2c[nH]c3ncc(-c4cccc(N5CCNCC5=O)c4)c(Cl)c23)n1 [Example 14, 1-(3-(4-chloro-3-((1-methyl-1H-1,2,4-triazol-3-yl)ethynyl)-1H-pyrrolo[2,3-b]pyridin-5-yl)phenyl)piperazin-2-one]
IC50 (HPK1): 0.01 to 0.1 µM
IC50 [1]: > 10 µM

CN(C)CC#Cc1c[nH]c2ncc(-c3cccc(N4CCNCC4=O)c3)c(Cl)c12 [Example 8, 1-(3-(4-chloro-3-(3-(dimethylamino)prop-1-yn-1-yl)-1H-pyrrolo[2,3-b]pyridin-5-yl)phenyl)piperazin-2-one]
IC50 (HPK1): > 1 µM
IC50 [1]: > 10 µM

Cc1ccc(C#Cc2c[nH]c3ncc(-c4cccc(N5CCNCC5=O)c4)c(Cl)c23)cn1 [Example 13, 1-(3-(4-chloro-3-((6-methylpyridin-3-yl)ethynyl)-1H-pyrrolo[2,3-b]pyridin-5-yl)phenyl)piperazin-2-one]
IC50 (HPK1): 0.01 to 0.1 µM
IC50 [1]: 3 to 10 µM

CCc1c[nH]c2ncc(-c3cccc(N4CCN(S(C)(=O)=O)CC4=O)c3)c(Cl)c12 [Example 52, 1-(3-(4-chloro-3-ethyl-1H-pyrrolo[2,3-b]pyridin-5-yl)phenyl)-4-(methylsulfonyl) piperazin-2-one]
IC50 (HPK1): ≤ 0.01 µM
IC50 [1]: 0.3 to 3 µM

CCc1c[nH]c2ncc(-c3cccc(N4CCN(CCOC)CC4=O)c3)c(Cl)c12 [Example 28, 1-(3-(4-chloro-3-ethyl-1H-pyrrolo[2,3-b]pyridin-5-yl)phenyl)-4-(2-methoxyethyl)piperazin-2-one]
IC50 (HPK1): ≤ 0.01 µM
IC50 [1]: 0.3 to 3 µM

CS(=O)(=O)N1CCN(c2cccc(-c3cnc4[nH]cc(CC(F)F)c4c3Cl)n2)C(=O)C1 [Example 61, 1-(6-(4-chloro-3-(2,2-difluoroethyl)-1H-pyrrolo[2,3-b]pyridin-5-yl)pyridin-2-yl)-4-(methylsulfonyl)piperazin-2-one]
IC50 (HPK1): ≤ 0.01 µM
IC50 [1]: 0.3 to 3 µM

CCc1c[nH]c2ncc(-c3cccc(N4CCN(C(=O)CCCNC(=O)CC56CC7CC(CC(C7)C5)C6)CC4=O)c3)c(Cl)c12 [Example 34, 2-((3r,5r,7r)-adamantan-1-yl)-N-(4-(4-(3-(4-chloro-3-ethyl-1H-pyrrolo[2,3-b]pyridin-5-yl)phenyl)-3-oxopiperazin-1-yl)-4-oxobutyl)acetamide]
IC50 (HPK1): 0.01 to 0.1 µM
IC50 [1]: 3 to 10 µM

COC(=O)c1c[nH]c2ncc(-c3cccc(N4CCNCC4=O)c3)c(Cl)c12 [Example 2, Methyl 4-chloro-5-(3-(2-oxopiperazin-1-yl)phenyl)-1H-pyrrolo[2,3-b]pyridine-3-carboxylate]
IC50 (HPK1): 0.1 to 1 µM
IC50 [1]: > 10 µM

CCc1c[nH]c2ncc(-c3cccc(N4CCN(C(=O)CO[C@@H]5O[C@H](CO)[C@@H](O)[C@H](O)[C@H]5O)CC4=O)c3)c(Cl)c12 [Example 49, 1-(3-(4-chloro-3-ethyl-1H-pyrrolo[2,3-b]pyridin-5-yl)phenyl)-4-(2-(((2R,3R,4S,5S,6R)-3,4,5-trihydroxy-6-(hydroxymethyl)tetrahydro-2H-pyran-2-yl)oxy)acetyl)piperazin-2-one]
IC50 (HPK1): ≤ 0.01 µM
IC50 [1]: > 10 µM

O=C1CNCCN1c1cccc(-c2cnc3[nH]cc(C4CC4)c3c2Cl)n1 [Example 15, 1-(6-(4-chloro-3-cyclopropyl-1H-pyrrolo[2,3-b]pyridin-5-yl)pyridin-2-yl)piperazin-2-one]
IC50 (HPK1): ≤ 0.01 µM
IC50 [1]: ≤ 0.3 µM

CS(=O)(=O)N1CCN(c2cccc(-c3cnc4[nH]cc(CC(F)F)c4c3Cl)c2)C(=O)C1 [Example 51, 1-(3-(4-chloro-3-(2,2-difluoroethyl)-1H-pyrrolo[2,3-b]pyridin-5-yl)phenyl)-4-(methylsulfonyl)piperazin-2-one]
IC50 (HPK1): ≤ 0.01 µM
IC50 [1]: 0.3 to 3 µM
